US7141601B2, “Dendrite elongation inhibitor for melanocyte and skin preparation for external use containing the same” (Pola Chemiocal Industries Inc., priority 2002, dated 2006)

Tested on: Normal human melanocyte
Assay: inhibitory action on the elongation of dendrites using human melanocytes
Assay type: cell-based
Source text: According to a method shown below, inhibitory action on the elongation of dendrites was examined using human melanocytes. (Reagent, etc.) Cells, basal media, and amplification additives were purchased from KURABO INDUSTRIES LTD. • (Cell) Normal human melanocyte • (Medium) Basal medium (Medium 154S) supplemented with reagents described below • (Reagent) Amplification additive: bovine pituitary extract (BPE) (final concentration of 0.4% v/v in the medium), fetal bovine serum • (FBS) (final concentration of 0.5% v/v in the medium), human recombinant basic fibroblast growth factor (rFGF-B) (final concentration of 3 ng/ml in the medium), hydrocortisone (final concentration of 0.18 μg/ml in the medium), insulin (final concentration 5 μg/ml in the medium), transferrin (final concentration of 5 μg/ml in the medium), phorbol 12-myristate 13-acetate (PMA) (final concentration of 10 ng/ml in the medium), heparin (final concentration of 3 μg/ml in the medium), and PSA solution (mixture solution of penicillin concentration of 50,000 Unit/ml, streptomycin concentration of 50 μg/ml, and amphotericin B concentration of 12.5 μg/ml; 1-ml addition with respect to 500 ml of the medium) (Method)
Compound 1 (methylophiopogonanone B) obtained in the above-described example of production was diluted in a basal medium so that the concentration was brought up to 100 μg/ml, to make a sample solution. […]

Q: Which Length of dendrite (50 μl of 100 μg/ml sample solution added to 200 μl medium, observed 24 hours after addition, growth factors in medium) does the source give for COc1ccc(CC2COc3c(C)c(O)c(C)c(O)c3C2=O)cc1 (centres unmarked) [Compound 1, 2,3-dihydro-3-[(4-methoxyphenyl)methyl]-5,7-dihydroxy-6,8-dimethyl-4H-1-benzopyran-4-on] here?
A: 22 ± 6 μm

Q: What about the “inhibition against the elongation of dendrites (in words)” value (vs control with basal medium only, 24 hours after addition) of the same compound?
A: elongation is inhibited
